Values quoted from earlier work as cited in patent publication US11154520B2, “Combination therapy for metastatic cancer” (General Oncology, Inc., priority 2015, dated 2021).

Settings: decomposes intravascularly within seconds to 2,3-diketogulonic acid

stability in blood: unstable
SMILES: O=C1O[C@H]([C@@H](O)CO)C(=O)C1=O [DHA, (5R)-5-[(1S)-1,2-dihydroxyethyl]oxolane-2,3,4-trione]
